Measurements reported in patent US20250008959A1, “HERBICIDES AND USE THEREOF” (Projini Agchem LTD, priority 2021, published 2025).

Legend:
[1] = target: T1, AtOASS (O-acetyl serine sulfhydrylase from Arabidopsis thaliana) (Arabidopsis thaliana, UniProt P47998); assay: Isothermal titration calorimetry (ITC) binding to OASS; conditions: for Kd: OASS titrated into compound in ITC cell, single binding model; for direct binding to AtOASS by ITC (in vitro screening of purchased virtual hits): result in words
T1 construct: GST (N, cleaved yes); made in house; host or cells: E. coli Rosetta (DE3)
T1 sequence (P47998 whole entry): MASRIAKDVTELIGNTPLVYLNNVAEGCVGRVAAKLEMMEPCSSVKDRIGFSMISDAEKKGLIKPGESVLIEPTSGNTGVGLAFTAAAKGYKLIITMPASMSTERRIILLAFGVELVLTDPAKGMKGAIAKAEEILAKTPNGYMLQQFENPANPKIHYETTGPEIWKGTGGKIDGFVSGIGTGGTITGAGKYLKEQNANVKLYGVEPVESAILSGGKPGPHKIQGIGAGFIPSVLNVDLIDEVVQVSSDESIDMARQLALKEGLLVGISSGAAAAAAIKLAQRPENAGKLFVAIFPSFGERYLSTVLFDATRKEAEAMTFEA
Excerpt: To evaluate the ability of the molecules to bind AtOASS (O-acetyl serine sulfhydrylase from Arabidopsis thaliana), the protein was placed in the ITC syringe and was titrated with the molecules that were placed in the ITC cell (see Examples section below). The direct dissociation binding constant (Kd) was then extracted from the binding curve using a single binding model, wherein a low Kd value corresponds to a stronger binding affinity.
To evaluate the binding of the small molecules to the enzyme OASS, the purified protein was placed in a 6-8 MWCO dialysis bag in 30 mM phosphate buffer, 30 mM NaCl, 1 mM TCEP, and 5% dimethyl sulfoxide. Sequential buffer exchange dialyses were executed for 12 hours each at 4° C. until dilution of >10,000 was achieved. Before the execution of the ITC binding experiment, the OASS was placed in the ITC syringe at a concentration of 400 μM and each of the small molecules was dissolved in the same dialysis buffer to a final concentration of 40 μM in the ITC cell. ITC experiments were conducted by titrating the OASS to the compounds in the cell. The ITC binding constant was evaluated using the build-in analysis software.
The designed de-novo herbicidal compounds were synthesized and evaluated for their in vitro and in planta activity. After dissolving the molecules to a stock of 50 mM in DMSO, binding and competition with the SAT-derived peptides were evaluated using ITC and FP. ITC measures the direct heat change occurring due to the interaction of a pair of molecules. ITC has certain advantages, such as the capability to detect a relatively broad range of binding affinities, being a label-free method, and providing a wide set of interaction parameters, such as affinity, stoichiometry, enthalpy, and entropy of binding. To evaluate the ability of the molecules to bind AtOASS, the protein was placed in the ITC syringe and was titrated with the molecules that were placed in the ITC cell. The direct dissociation binding constant (Kd) was then extracted from the binding curve using a single binding model. Two consecutive experiments were combined using the built in ITC module to enable better quantification. A low Kd value corresponds to a stronger binding affinity.

[2] = target: T2, OASS-SAT complex (AtOASS with SAT-derived peptide) (Arabidopsis thaliana, UniProt P47998); assay: Fluorescence polarization (FP) competition with FITC-labeled SAT-derived peptide bound to OASS; assay type: binding; conditions: competition with FITC-SAT peptide 200 nM, OASS 2.2 μM; for IC50: single site inhibition model
T2 construct: GST (N, cleaved yes); made in house; host or cells: E. coli Rosetta (DE3)
T2 sequence (P47998 whole entry, one chain of several): as the sequence (P47998 whole entry) above
Description: Molecules were also tested for their ability to compete with the OASS binding to the SAT-derived peptide via a fluorescence polarization (FP) competition assay wherein the N-terminus labeled peptide was incubated with the AtOASS (see Examples section below). High FP values correspond to the peptide-bound state (low molecule concentrations) and low FP values correspond to the peptide-free state (low FP values). To extract the IC50, the FP data were fitted to a single site inhibition model in PRISM by GraphPad Software. The corresponding IC50 values were extracted, whereas low IC50 values correspond to molecule that better competes with the peptide binding to AtOASS. Fluorescence polarization (FP) measurements were made on samples arrayed in 96-well plates by using BioTek H1 Synergy instrument equipped with FP module. […] The peptide in a concentration of 200 nM was incubated with OASS at a concentration of 2.2 μM in each well. Variable concentrations of each molecule starting from 100 μM down to 0.048 μM were added to evaluate the ability of each molecule to compete off the FITC labeled peptide bound to OASS. Fluorescence experiments were executed with an Em/Exc wavelengths of 480/520 nm. All measurements were done in triplicate. Experimental polarization data from simple and competitive binding experiments were fitted using GraphPad Prism, with error bars representing SD. Molecules were also tested for their ability to compete with the OASS binding to the SAT-derived peptide via a fluorescence polarization (FP) competition assay. The N-terminus labeled peptide was incubated with the AtOASS in each of the wells in a 96-well plate. Various concentrations of the molecules were added and the FP values were recorded. High FP values correspond to the peptide-bound state (low molecule concentrations) and low FP values correspond to the peptide-free state (low FP values). To extract the IC50, the FP data were fitted to a single site inhibition model in graphpad prism. The corresponding IC50 values were extracted. Low IC50 values correspond to molecule that better competes with the peptide binding to AtOASS.

Arabidopsis thaliana = assay: Root elongation in plates (in planta root elongation assay); assay type: in vivo; conditions: 168 h, A. thaliana on MS medium plates, 7 days, read-out: Root-growth inhibition %
Description: 6-well plates were prepared in a biological hood with sterile half Murashige and Skoog mineral medium (MS; Duchefa, Haarlem, Netherlands) containing 1% sucrose (w/v), pH 5.8. Tested molecules were dissolved in 50 mM DMSO and diluted to various concentrations 1,000-fold greater than the final desired concentration the MS medium maintaining a final concentration of 0.1% DMSO. MS medium with 0.1% DMSO was used as a negative control. After 7 days the plates were scanned and the root length was calculated using the imageJ software. […] Further sterilization was done by washing the seeds with 50% hypochlorite and 0.2% Triton x-100 for 10 minutes followed by five cycles of washing with sterile water. Six seeds were placed in each well, and the plates were covered and sealed with parafilm. Plates were placed vertically at 4° C. for two days and then transferred to a growth chamber for seven days (22-24° C.) at day/light cycles of 16/8 hours. Following the in vitro evaluation, selected molecules were tested for their ability to inhibit A. thaliana root elongation on agar plates. Seeds were plated on medium containing the molecules dissolved in the indicated concentrations and root length was measured after 6 or 7 days when the root in the non-treated plate reached the end of the well.

Row | SMILES | Kd [1] [µM] | FP % inhibition [2] [%] | IC50 [2] [µM] | inhibition at 50 µM (Arabidopsis thaliana) [%] | direct binding to AtOASS by ITC (in vitro screening of purchased virtual hits) [1]
1 | O=C(O)c1cc2c(c(S(=O)(=O)Nc3cc(Cl)c(Cl)c(C(=O)O)c3)c1)CCC2 [PJL-29] | 3.5 | 13 | 132 | 11 | –
2 | COc1ccc(C(=O)O)cc1S(=O)(=O)Nc1ccc(NC(=O)CC(C)C)cc1 [PJL-30] | 6.6 | 11 | 300 | 0 | –
3 | O=C(O)c1cc2c(c(S(=O)(=O)Nc3cccc(NC(=O)C4CC4)c3)c1)CCC2 [PJL-39] | 10.1 | 12 | 127 | 18 | –
4 | O=C(O)c1cc(F)ccc1NS(=O)(=O)c1cnc(-c2ccc(F)cc2)s1 [PJL-41] | 4.8 | 19 | 34 | 85 | showed direct binding to AtOASS by ITC
5 | Cc1ccnn1-c1cccc(NS(=O)(=O)c2cc(C(=O)O)cc3c2CCC3)c1 [PJL-43] | 9.9 | 17 | 87 | 6 | –
6 | O=C(Nc1cccc(NC(=O)c2ccccc2-c2ccccc2C(=O)O)c1)c1ccco1 [PJL-60] | 1.27 | 32 | 4.8 | 0 | –
7 | O=C(Nc1nccs1)c1cccc(NC(=O)c2ccccc2-c2ccccc2C(=O)O)c1 [PJL-62] | 2 | 31 | 6.7 | 0 | –
8 | O=C(Nc1cccc(O)c1)c1cccc(NC(=O)c2ccccc2-c2ccccc2C(=O)O)c1 [PJL-63] | 1.48 | 34 | 6.3 | 12 | –
9 | O=C(O)c1ccccc1-c1ccccc1C(=O)Nc1cccc(O)c1 [PJL-64] | 3.4 | 23 | 12.8 | 23 | –
10 | O=C(O)c1ccccc1-c1ccccc1C(=O)Nc1cccc(-c2nc3ccccc3[nH]2)c1 [PJL-65] | 1.77 | 38 | 4 | 0 | –
11 | CCc1nnc(NC(=O)c2ccccc2-c2ccccc2C(=O)O)s1 [PJL-66] | 8.6 | 17 | 30.8 | 0 | –
12 | CC(C)(C)NC(=O)c1ccc(NC(=O)c2ccccc2-c2ccccc2C(=O)O)cc1 [PJL-67] | 2.38 | 30 | 20.9 | 9 | –
13 | O=C(O)c1ccccc1-c1ccccc1C(=O)Nc1cccc(NNc2nccs2)c1 [PJL-68] | 3.4 | 32 | 10 | 0 | –
14 | O=C(O)c1cc2c(c(S(=O)(=O)Nc3cccc(-c4noc(C5CCCO5)n4)c3)c1)CCC2 (stereo not drawn) [PJL-69] | 8.12 | 21 | – | – | –
15 | O=C(O)c1cc2c(c(S(=O)(=O)Nc3cccc(-c4n[nH]c(C5CC5)n4)c3)c1)CCC2 [PJL-71] | 6.11 | 24 | 21 | 17 | –
16 | O=C(O)c1cc2c(c(S(=O)(=O)Nc3cccc(-n4cccn4)c3)c1)CCC2 [PJL-76] | 18.3 | 16 | – | 0 | –
17 | O=C(O)c1cc(F)ccc1NS(=O)(=O)c1cnc(-c2ccccc2)o1 [PJL-81] | 28 | 23 | 32 | 15 | –
18 | O=C(O)c1ccccc1NS(=O)(=O)c1cnc(-c2ccccc2)s1 [PJL-83] | 9.9 | 17 | 74 | 0 | –
19 | O=C(O)c1cc(F)ccc1NS(=O)(=O)c1cnn(-c2cccc(C(F)(F)F)c2)c1 [PJL-84] | 10.9 | 24 | 44 | 47 | –
20 | O=C(Cc1ccccc1C(=O)O)Nc1cccc(C(=O)Nc2nccs2)c1 [PJL-93] | 5.3 | 21 | – | 0 | –
21 | O=C(O)c1cccc(NC2=C(Cl)C(=O)N(c3ccc(Cl)c(Cl)c3)C2=O)c1 [PJL-103] | 9.37 | 21 | 73 | 0 | –
22 | Cc1cc(-c2cc(NC(=O)c3ccccc3-c3ccccc3C(=O)O)[nH]n2)ccc1OCCN1CCOCC1 [PJL-106] | 0.94 | 45 | 1.9 | 0 | –
23 | NCCc1ccc(-c2csc(NC(=O)c3ccccc3-c3ccccc3C(=O)O)n2)cc1 [PJL-107] | 0.32 | 41 | 1.9 | 29 | –
24 | COc1ccc(C(=O)O)c(NS(=O)(=O)c2cnn(-c3cccc(C(F)(F)F)c3)c2)c1 [PJL-114] | 12 | 17 | 41 | – | –
25 | CC(C)CNC(=O)c1cccc(NC(=O)c2ccccc2-c2ccccc2C(=O)O)c1 [PJS-120] | – | – | – | – | showed direct binding to AtOASS by ITC
